What all share (type): in vivo, mice
For test [1], the system named is intracranial HIF-1alfa KO (HIFko) tumor. In words: Homing of phage displaying CGLSGLGVA to intracranial islet tumors (phage titration of organs). Conditions: peptide displayed on phage, 10^9 pfu into tail vein, 15 min circulation, perfusion, FIG. 1. As to the method:
CGLSGLGVA or a control phage (10^9 pfu=plaque forming unit) were injected into the tail vein of intracranial HIF-1alfa KO (HIFko) tumor-bearing mice. After 15 min of circulation the mice were perfused through the heart with saline to remove unbound phage followed by excision of tumor containing brain, normal brain, liver, kidney and lungs. The number of phage homed to those organs were determined by titration.

For test [2], the system named is intracranial HIFko islet tumors. In words: Homing of fluorescein-conjugated peptide to intracranial HIFko islet tumors (histology, anti-FITC). The settings on record: 10 μg into tail vein, 60 min circulation. As to the method: Fluorescein-conjugated CGLSGLGVA peptide (10 μg) was injected into tail vein of HIFko tumor-bearing mice. After 60 min of circulation tumor-containing brain was excised and prepared for histological analysis. Peptide was visualized by using an antibody against fluorescein (rabbit anti-FITC, Zymed Laboratories). […] Presence of the tumor cells was confirmed by staining for the SV40 T-antigen specific for tumor cells from a subsequent section (green in FIG. 2B). FIGS. 2C and 2D show the same microscopic field as 2A and 2B. Nuclei were visualized by DAPI staining (blue).
(§1) Fluorescein-conjugated CGLSGLGVA peptide (10 μg) was injected into tail vein of murine HIFko or human U87MG intracranial xenograft bearing mice. After 60 min of circulation tumor-containing brain was excised and prepared for histological analysis. Peptide was visualized by using an antibody against fluorescein (rabbit anti-FITC, Zymed Laboratories). […] Nuclei were visualized by DAPI staining (blue).

Test [3] deals with human U87MG intracranial xenograft. Kind of test: Homing and localization of fluorescein-conjugated peptide in intracranial U87MG tumors (histology, PECAM-1 co-staining). Here is the method:
as §1
Fluorescein-conjugated CGLSGLGVA peptide (10 μg) was injected into the tail vein of intracranial human U87MG tumor-bearing mice. After 60 min of circulation tumor-containing brain was excised and prepared for histological analysis. Peptide was visualized by using an antibody against fluorescein (rabbit anti-FITC, Zymed Laboratories). […] Magnification in FIG. 6A, 200×; FIG. 6B, 400×.

Test [4] concerns subcutaneous HIFko tumor. Kind of test: Homing of fluorescein-conjugated peptide to subcutaneous HIFko tumors (histology). Conditions: 10 μg into tail vein, 60 min circulation, FIG. 4A. Here is the method:
Fluorescein-conjugated CGLSGLGVA peptide (10 μg) was injected into the tail vein of subcutaneous HIFko tumor-bearing mice. After 60 min of circulation tumor was excised and prepared for histological analysis. Peptide was visualized by using an antibody against FITC (rabbit anti-FITC, Zymed Laboratories). FIG. 4A. […] FIG. 4B. Same microscopic field as in FIG. 4A. Nuclei were visualized by DAPI staining (blue).

Test [5] relates to VEGF overexpressing (VEGF+) tumor. In words: Homing of fluorescein-conjugated peptide to intracranial VEGF-overexpressing tumors (histology). The settings on record: 10 μg into tail vein, 60 min circulation, FIG. 3A. As to the method:
Fluorescein-conjugated CGLSGLGVA peptide (10 μg) was injected into the tail vein of VEGF overexpressing (VEGF+) tumor-bearing mice. After 60 min of circulation tumor was excised and prepared for histological analysis. Peptide was visualized by using an antibody against fluorescein (rabbit anti-FITC, Zymed Laboratories). FIG. 3A. […] 3B: Same microscopic field as in 3A. Nuclei were visualized by DAPI staining (blue).

Ends that are not written are not given here.

On to “CGLSGLGVA [novel nine amino acid long tumor-homing peptide]”, for which the “homing of phage to tumor containing brain versus normal brain, liver, kidney and lungs” value in test [1] is recorded as “very specifically homes to the intracranial, early stage astrocytoma model (HIFko)”.
For the substance “Fluorescein-conjugated CGLSGLGVA peptide: CGLSGLGVA peptide conjugated to fluorescein, detected with anti-FITC antibody (also: fluorescein conjugate)”, the “detection of peptide in tumor islets and surrounding normal brain” value in test [2] (FIG. 2) is “detected only in the tumor islets and not in the surrounding normal brain tissue”. The “homing pattern of peptide in tumor” value in test [2] (murine HIFko intracranial tumor, FIG. 5A) is listed as “detected diffusively in the whole tumor tissue”; in test [3] (human U87MG intracranial xenograft, 10 μg into tail vein, 60 min circulation, FIG. 5B) it was “peptide distribution resembled that of blood vessels”. In addition, the homing to tumor result in test [3] (U87MG human glioblastoma xenografts, intravenous injection into the tail vein) is “homes to the U87MG human glioblastoma xenografts”. Also, the “colocalization with endothelial cell marker PECAM-1” value in test [3] (intracranial U87MG tumor, 10 μg into tail vein, 60 min circulation, FIG. 6) is on record as “did not colocalize with the blood vessel marker PECAM-1”. The “detection of peptide in tumor tissue” value in test [4] and in test [5] was “not detected in the tumor tissue” each time.

(Values after patent US8188221B2, “Peptide homing to brain tumors” (Burnham Institute for Medical Research, priority 2008, dated 2012).)
